Measured values reported in ChEMBL document CHEMBL4507285, “Data for DCP probe MRL-SYKi” (2021).

How the values were obtained:
Conditions in all cases: Compound concentration 100.0 nM
[1] = system: Proto-oncogene tyrosine-protein kinase receptor Ret (Homo sapiens), P07949 [V804M]
[2] = target: Cyclin-dependent kinase-like 3 (Homo sapiens) (UniProt Q8IVW4)
[3] = target: Serine/threonine-protein kinase MRCK beta (Homo sapiens) (UniProt Q9Y5S2)
[4] = target: Mitogen-activated protein kinase 14 (Homo sapiens) (UniProt Q16539)
[5] = system: Phosphatidylinositol 4,5-bisphosphate 3-kinase catalytic subunit alpha isoform (Homo sapiens), P42336 [H1047L]
[6] = target: Serine/threonine-protein kinase Sgk2 (Homo sapiens) (UniProt Q9HBY8)
[7] = target: Mitogen-activated protein kinase 8 (Homo sapiens) (UniProt P45983)
[8] = target: Tyrosine-protein kinase Fes/Fps (Homo sapiens) (UniProt P07332)
[9] = system: Phosphatidylinositol 4,5-bisphosphate 3-kinase catalytic subunit alpha isoform (Homo sapiens), P42336 [C420R]
[10] = target: Casein kinase I isoform delta (Homo sapiens) (UniProt P48730)
[11] = target: Ephrin type-A receptor 8 (Homo sapiens) (UniProt P29322)
[12] = target: Cyclin-dependent kinase 15 (Homo sapiens) (UniProt Q96Q40)
[13] = system: Mast/stem cell growth factor receptor Kit (Homo sapiens), P10721 [V559D,T670I]
[14] = target: STE20-like serine/threonine-protein kinase (Homo sapiens) (UniProt Q9H2G2)
[15] = target: Phosphatidylinositol 4,5-bisphosphate 3-kinase catalytic subunit beta isoform (Homo sapiens) (UniProt P42338)
[16] = target: Serine/threonine-protein kinase STK11 (Homo sapiens) (UniProt Q15831)
[17] = target: LIM domain kinase 2 (Homo sapiens) (UniProt P53671)
[18] = target: Serine/threonine-protein kinase Chk2 (Homo sapiens) (UniProt O96017)
[19] = target: Aurora kinase B (Homo sapiens) (UniProt Q96GD4)
[20] = target: Rhodopsin kinase GRK7 (Homo sapiens) (UniProt Q8WTQ7)
[21] = target: Ribosomal protein S6 kinase alpha-1 (Homo sapiens) (UniProt Q15418)
[22] = target: Activin receptor type-1 (Homo sapiens) (UniProt Q04771)
[23] = target: Serine/threonine-protein kinase RIO1 (Homo sapiens) (UniProt Q9BRS2)
[24] = target: Serine/threonine-protein kinase NLK (Homo sapiens) (UniProt Q9UBE8)
[25] = target: Tyrosine-protein kinase SYK (Homo sapiens, UniProt P43405)
[26] = target: Receptor tyrosine-protein kinase erbB-3 (Homo sapiens) (UniProt P21860)
[27] = system: Epidermal growth factor receptor (Homo sapiens), P00533 [UNDEFINED MUTATION]
[28] = target: Tyrosine-protein kinase BTK (Homo sapiens) (UniProt Q06187)
[29] = target: Serine/threonine-protein kinase PLK3 (Homo sapiens) (UniProt Q9H4B4)
[30] = target: Serine/threonine-protein kinase DCLK2 (Homo sapiens) (UniProt Q8N568)
[31] = target: Mast/stem cell growth factor receptor Kit (Homo sapiens) (UniProt P10721)
[32] = target: RAC-gamma serine/threonine-protein kinase (Homo sapiens) (UniProt Q9Y243)
[33] = target: Fibroblast growth factor receptor 4 (Homo sapiens) (UniProt P22455)
[34] = target: Serine/threonine-protein kinase TNNI3K (Homo sapiens) (UniProt Q59H18)
[35] = target: Protein kinase C epsilon type (Homo sapiens) (UniProt Q02156)
[36] = target: Serine/threonine-protein kinase Nek1 (Homo sapiens) (UniProt Q96PY6)
[37] = target: Calcium/calmodulin-dependent protein kinase type II subunit beta (Homo sapiens) (UniProt Q13554)
[38] = target: Mitogen-activated protein kinase 1 (Homo sapiens) (UniProt P28482)
[39] = target: TGF-beta receptor type-1 (Homo sapiens) (UniProt P36897)
[40] = target: Discoidin domain-containing receptor 2 (Homo sapiens) (UniProt Q16832)
[41] = system: Epidermal growth factor receptor (Homo sapiens), P00533 [UNDEFINED MUTATION]; remark: listed apart in the source
[42] = target: Hepatocyte growth factor receptor (Homo sapiens) (UniProt P08581)
[43] = target: Serine/threonine-protein kinase Nek3 (Homo sapiens) (UniProt P51956)
LIM domain kinase 1 = LIM domain kinase 1 (Homo sapiens, UniProt P53667)
[44] = target: Ribosomal protein S6 kinase alpha-5 (Homo sapiens) (UniProt O75582)

Epidermal growth factor receptor (Homo sapiens), P00533 [UNDEFINED MUTATION], sequence (P00533 whole entry, looked up, change not shown): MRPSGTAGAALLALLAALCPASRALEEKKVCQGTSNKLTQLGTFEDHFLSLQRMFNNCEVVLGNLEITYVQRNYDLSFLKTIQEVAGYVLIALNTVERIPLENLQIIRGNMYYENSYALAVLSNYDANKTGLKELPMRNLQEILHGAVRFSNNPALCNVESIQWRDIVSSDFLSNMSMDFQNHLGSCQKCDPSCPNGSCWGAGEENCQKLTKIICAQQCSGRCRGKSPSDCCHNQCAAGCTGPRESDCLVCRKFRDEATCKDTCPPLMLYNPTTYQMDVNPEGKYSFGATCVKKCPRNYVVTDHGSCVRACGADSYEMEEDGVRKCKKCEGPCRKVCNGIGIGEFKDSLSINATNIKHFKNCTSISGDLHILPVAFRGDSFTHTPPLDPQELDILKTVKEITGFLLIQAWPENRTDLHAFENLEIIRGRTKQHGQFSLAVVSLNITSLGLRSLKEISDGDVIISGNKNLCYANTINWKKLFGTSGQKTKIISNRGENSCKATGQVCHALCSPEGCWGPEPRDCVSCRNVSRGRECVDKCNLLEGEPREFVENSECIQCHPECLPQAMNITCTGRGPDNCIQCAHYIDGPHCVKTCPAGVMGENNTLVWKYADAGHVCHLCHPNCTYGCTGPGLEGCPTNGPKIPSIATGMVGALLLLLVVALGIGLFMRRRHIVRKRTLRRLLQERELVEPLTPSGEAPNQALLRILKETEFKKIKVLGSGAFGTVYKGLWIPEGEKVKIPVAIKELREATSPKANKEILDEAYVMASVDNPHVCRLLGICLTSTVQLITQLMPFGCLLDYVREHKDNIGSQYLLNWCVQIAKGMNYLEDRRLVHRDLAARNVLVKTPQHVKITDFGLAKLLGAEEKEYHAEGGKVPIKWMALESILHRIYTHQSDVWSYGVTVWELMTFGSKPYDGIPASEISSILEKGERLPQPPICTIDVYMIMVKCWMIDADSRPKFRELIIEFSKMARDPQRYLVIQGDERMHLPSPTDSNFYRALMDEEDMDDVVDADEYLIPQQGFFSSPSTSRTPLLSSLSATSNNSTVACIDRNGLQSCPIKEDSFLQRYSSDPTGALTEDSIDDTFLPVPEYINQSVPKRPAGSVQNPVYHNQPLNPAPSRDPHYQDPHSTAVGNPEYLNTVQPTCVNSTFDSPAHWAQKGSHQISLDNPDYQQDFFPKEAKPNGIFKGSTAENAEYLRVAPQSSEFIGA
RAC-gamma serine/threonine-protein kinase (Homo sapiens), sequence (Q9Y243 whole entry): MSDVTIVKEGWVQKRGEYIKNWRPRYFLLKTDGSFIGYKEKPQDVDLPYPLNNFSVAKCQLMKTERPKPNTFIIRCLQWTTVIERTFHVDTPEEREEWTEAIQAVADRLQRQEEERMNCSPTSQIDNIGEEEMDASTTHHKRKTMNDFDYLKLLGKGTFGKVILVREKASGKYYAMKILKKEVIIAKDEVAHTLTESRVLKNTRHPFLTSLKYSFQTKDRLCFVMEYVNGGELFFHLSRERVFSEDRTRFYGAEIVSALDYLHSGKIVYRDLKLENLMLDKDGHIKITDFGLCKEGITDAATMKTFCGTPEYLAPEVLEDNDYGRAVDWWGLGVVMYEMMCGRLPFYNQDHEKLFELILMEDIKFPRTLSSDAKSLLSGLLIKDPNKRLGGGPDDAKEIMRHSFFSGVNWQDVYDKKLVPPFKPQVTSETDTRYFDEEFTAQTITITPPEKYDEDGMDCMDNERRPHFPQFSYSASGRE
Serine/threonine-protein kinase PLK3 (Homo sapiens), sequence (Q9H4B4 whole entry, looked up): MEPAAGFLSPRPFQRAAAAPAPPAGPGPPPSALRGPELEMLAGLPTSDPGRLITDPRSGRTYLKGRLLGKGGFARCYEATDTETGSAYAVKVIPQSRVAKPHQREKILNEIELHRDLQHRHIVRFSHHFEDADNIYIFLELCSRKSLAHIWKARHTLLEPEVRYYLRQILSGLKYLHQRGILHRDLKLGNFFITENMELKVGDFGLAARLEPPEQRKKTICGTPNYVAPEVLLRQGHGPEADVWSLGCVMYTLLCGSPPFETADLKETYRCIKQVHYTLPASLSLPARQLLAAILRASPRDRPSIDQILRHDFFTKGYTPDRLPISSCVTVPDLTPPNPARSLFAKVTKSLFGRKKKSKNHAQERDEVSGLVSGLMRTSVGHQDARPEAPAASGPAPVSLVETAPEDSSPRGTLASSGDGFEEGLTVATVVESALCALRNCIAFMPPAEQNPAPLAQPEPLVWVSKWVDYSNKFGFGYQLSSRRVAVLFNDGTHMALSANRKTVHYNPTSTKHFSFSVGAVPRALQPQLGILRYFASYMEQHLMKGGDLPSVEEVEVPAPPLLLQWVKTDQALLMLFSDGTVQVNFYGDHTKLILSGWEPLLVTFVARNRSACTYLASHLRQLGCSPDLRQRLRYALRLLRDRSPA
TGF-beta receptor type-1 (Homo sapiens), sequence (P36897 whole entry, the tested form may be a part): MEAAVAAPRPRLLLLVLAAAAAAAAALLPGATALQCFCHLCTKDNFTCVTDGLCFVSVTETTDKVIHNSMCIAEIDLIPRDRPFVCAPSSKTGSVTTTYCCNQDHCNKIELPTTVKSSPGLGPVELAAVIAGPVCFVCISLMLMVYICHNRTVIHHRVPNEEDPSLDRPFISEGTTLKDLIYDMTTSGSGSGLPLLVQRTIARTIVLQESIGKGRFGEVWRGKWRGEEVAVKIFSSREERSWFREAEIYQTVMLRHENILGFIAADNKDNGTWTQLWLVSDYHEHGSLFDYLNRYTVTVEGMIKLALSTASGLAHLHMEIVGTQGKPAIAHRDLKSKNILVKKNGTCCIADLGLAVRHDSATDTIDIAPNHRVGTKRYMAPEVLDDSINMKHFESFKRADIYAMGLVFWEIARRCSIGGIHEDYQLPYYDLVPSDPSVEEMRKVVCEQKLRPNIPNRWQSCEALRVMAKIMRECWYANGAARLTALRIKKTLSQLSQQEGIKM
LIM domain kinase 2 (Homo sapiens), sequence (P53671 whole entry, looked up, the tested form may be a part): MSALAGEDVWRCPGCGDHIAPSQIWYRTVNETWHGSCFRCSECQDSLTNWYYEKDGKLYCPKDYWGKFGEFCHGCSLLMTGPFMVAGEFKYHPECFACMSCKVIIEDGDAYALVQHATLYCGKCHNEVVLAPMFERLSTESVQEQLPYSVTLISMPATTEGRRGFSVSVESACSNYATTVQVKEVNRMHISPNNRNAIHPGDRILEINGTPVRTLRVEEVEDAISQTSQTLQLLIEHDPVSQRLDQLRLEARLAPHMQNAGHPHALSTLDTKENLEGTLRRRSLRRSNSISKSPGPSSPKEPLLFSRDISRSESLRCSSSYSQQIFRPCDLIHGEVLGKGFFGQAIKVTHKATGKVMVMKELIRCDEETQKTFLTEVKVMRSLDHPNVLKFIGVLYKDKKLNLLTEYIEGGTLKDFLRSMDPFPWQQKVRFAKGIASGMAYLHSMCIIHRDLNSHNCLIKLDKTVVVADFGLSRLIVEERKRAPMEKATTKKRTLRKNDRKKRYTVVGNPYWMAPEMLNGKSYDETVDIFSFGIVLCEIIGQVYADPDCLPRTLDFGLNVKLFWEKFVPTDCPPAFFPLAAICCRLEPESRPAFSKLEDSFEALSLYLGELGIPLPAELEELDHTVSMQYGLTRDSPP
Receptor tyrosine-protein kinase erbB-3 (Homo sapiens), sequence (P21860 whole entry): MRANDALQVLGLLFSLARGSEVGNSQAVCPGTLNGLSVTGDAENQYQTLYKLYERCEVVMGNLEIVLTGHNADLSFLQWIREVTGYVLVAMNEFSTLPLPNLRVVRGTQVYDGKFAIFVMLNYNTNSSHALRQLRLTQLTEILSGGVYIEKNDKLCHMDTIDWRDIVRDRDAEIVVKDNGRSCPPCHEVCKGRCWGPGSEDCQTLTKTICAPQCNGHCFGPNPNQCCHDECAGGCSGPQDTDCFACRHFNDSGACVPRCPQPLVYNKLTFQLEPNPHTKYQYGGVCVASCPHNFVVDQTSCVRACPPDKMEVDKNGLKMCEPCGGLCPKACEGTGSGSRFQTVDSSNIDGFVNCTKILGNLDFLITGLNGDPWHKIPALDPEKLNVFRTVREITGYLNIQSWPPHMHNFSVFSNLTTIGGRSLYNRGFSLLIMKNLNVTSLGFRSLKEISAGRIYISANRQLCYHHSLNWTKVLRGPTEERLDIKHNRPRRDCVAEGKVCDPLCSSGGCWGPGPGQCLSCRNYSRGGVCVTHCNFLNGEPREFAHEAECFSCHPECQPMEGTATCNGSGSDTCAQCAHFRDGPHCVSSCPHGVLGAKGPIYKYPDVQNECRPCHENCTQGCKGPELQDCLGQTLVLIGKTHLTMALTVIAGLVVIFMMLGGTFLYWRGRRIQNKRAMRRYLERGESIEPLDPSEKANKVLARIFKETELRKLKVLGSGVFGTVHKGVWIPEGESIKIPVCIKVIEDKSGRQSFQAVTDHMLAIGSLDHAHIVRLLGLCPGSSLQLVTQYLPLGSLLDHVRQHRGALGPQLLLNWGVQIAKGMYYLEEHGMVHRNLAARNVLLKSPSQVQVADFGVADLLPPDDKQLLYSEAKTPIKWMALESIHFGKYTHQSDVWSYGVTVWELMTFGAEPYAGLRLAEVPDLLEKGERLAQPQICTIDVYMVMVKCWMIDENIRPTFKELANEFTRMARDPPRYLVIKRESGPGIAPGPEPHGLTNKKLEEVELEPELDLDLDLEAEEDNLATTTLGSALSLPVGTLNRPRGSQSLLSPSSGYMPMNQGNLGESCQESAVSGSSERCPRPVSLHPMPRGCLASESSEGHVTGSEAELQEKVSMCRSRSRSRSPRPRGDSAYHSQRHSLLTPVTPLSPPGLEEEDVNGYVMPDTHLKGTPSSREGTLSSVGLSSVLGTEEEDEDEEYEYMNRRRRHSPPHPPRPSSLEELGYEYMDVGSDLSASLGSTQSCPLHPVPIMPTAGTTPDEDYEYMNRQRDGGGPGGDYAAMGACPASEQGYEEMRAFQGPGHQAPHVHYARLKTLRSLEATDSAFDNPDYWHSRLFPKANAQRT

Cc1ccc(-c2cnc([C@@]3(O)CC[C@H](C(=O)O)C(C)(C)C3)s2)cc1Nc1cccc(C(F)(F)F)n1 [MRL-SYKi-NC]
residual activity [1]: 100%
residual activity [2]: 100%
residual activity [3]: 91.6%
residual activity [4]: 97%
residual activity [5]: 94.8%
residual activity [6]: 57.3%
residual activity [7]: 63.7%
residual activity [8]: 100%
residual activity [9]: 85.3%
residual activity [10]: 92.5%
residual activity [11]: 88.9%
residual activity [12]: 89.7%
residual activity [13]: 99.7%
residual activity [14]: 93.6%
residual activity [15]: 77.1%
residual activity [16]: 70.8%
residual activity [17]: 100%
residual activity [18]: 100%
residual activity [19]: 93.1%
residual activity [20]: 75.4%
residual activity [21]: 91.2%
residual activity [22]: 100%
residual activity [23]: 100%
residual activity [24]: 100%
residual activity [25]: 90%
residual activity [26]: 100%
residual activity [27]: 100%
residual activity [28]: 86.1%
residual activity [29]: 100%
residual activity [30]: 100%
residual activity [31]: 100%
residual activity [32]: 82.8%
residual activity [33]: 100%
residual activity [34]: 100%
residual activity [35]: 100%
residual activity [36]: 67.1%
residual activity [37]: 95.3%
residual activity [38]: 100%
residual activity [39]: 83%
residual activity [40]: 100%
residual activity [41]: 92.1%
residual activity [42]: 100%
residual activity [43]: 82.8%
residual activity (LIM domain kinase 1): 100%
residual activity [44]: 71.4%

Cc1cc(Nc2nccc(C)n2)cc(-c2cnc([C@@]3(O)CC[C@H](C(=O)O)C(C)(C)C3)s2)c1 [MRL-SYKi]
residual activity [1]: 81.3%
residual activity [2]: 100%
residual activity [3]: 100%
residual activity [4]: 100%
residual activity [5]: 81.7%
residual activity [6]: 100%
residual activity [7]: 46.6%
residual activity [8]: 100%
residual activity [9]: 99.9%
residual activity [10]: 100%
residual activity [11]: 100%
residual activity [12]: 100%
residual activity [13]: 83.9%
residual activity [14]: 96.4%
residual activity [15]: 100%
residual activity [16]: 100%
residual activity [17]: 87.2%
residual activity [18]: 100%
residual activity [19]: 89%
residual activity [20]: 100%
residual activity [21]: 93%
residual activity [22]: 59.3%
residual activity [23]: 100%
residual activity [24]: 73%
residual activity [25]: 0.9%
residual activity [26]: 66.6%
residual activity [27]: 74%
residual activity [28]: 81.5%
residual activity [29]: 74.6%
residual activity [30]: 90.1%
residual activity [31]: 71.7%
residual activity [32]: 100%
residual activity [33]: 100%
residual activity [34]: 100%
residual activity [35]: 100%
residual activity [36]: 100%
residual activity [37]: 100%
residual activity [38]: 100%
residual activity [39]: 68.4%
residual activity [40]: 100%
residual activity [41]: 100%
residual activity [42]: 100%
residual activity [43]: 50.7%
residual activity (LIM domain kinase 1): 93.1%
residual activity [44]: 100%
